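Each compound was tested at five concentrations against cells in 96-well plates for 48 hours. TGI denotes the concentration required for complete inhibition of growth.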
Tests used:
Experiment in all cases: growth of human tumour cells (NCI), 48 h
A549 NSCLC = system: A549 NSCLC
EKVX NSCLC = system: EKVX NSCLC
HCC-2998 colon = system: HCC-2998 colon
HS 578T breast = system: HS 578T breast
MDA-MB-435 = system: MDA-MB-435
OVCAR-4 ovarian = system: OVCAR-4 ovarian
SN12C renal = system: SN12C renal
T-47D breast = system: T-47D breast
NCI-H23 lung = system: NCI-H23 lung
SK-OV-3 ovarian = system: SK-OV-3 ovarian

Compound | TGI (A549 NSCLC) [µM] | TGI (EKVX NSCLC) [µM] | TGI (HCC-2998 colon) [µM] | TGI (HS 578T breast) [µM] | TGI (MDA-MB-435) [µM] | TGI (OVCAR-4 ovarian) [µM] | TGI (SN12C renal) [µM] | TGI (T-47D breast) [µM] | TGI (NCI-H23 lung) [µM] | TGI (SK-OV-3 ovarian) [µM]
O=C(Nc1ccc(Cl)cc1)c1cc(S(=O)(=O)N2CCNNC2=O)c(S)cc1Cl | > 100 | > 100 | > 100 | > 100 | > 100 | > 100 | > 100 | > 100 |  | 
COc1cccc(/C=N/[N-]C(N)=O)c1[O-].[Co+2].[OH3+].c1ccncc1 | > 100 | > 100 | > 100 |  |  | > 100 | > 100 |  | > 100 | > 100
C=C(C)CCC(O)[C@](C)(O)[C@H]1[C@H](O)C[C@@]2(C)[C@@H]3CCc4c(cc(OC5OC(CO)C(O)C(O)C5O)c(O)c4C)C3(C)C(=O)C[C@]12C (stereo partly drawn) | > 100 | > 100 | > 100 |  | > 100 | > 100 | > 100 | > 100 | > 100 | > 100
O=C(OCC(OC(=O)c1ccccc1)C1CC(C2(O)CCCCC2)C(=O)O1)c1ccccc1 (stereo not drawn) | > 25 | > 25 | > 25 |  | > 25 | > 25 | > 25 |  | 7.85 | > 25
C=C(C)[C@H]1CC(=O)[C@@]2(C)C[C@H]3O[C@]3(C)CC/C=C(\C)CC[C@H]12 | > 100 | > 100 | > 100 |  | > 100 | > 100 | 54.9 | > 100 | > 100 | > 100
COc1ccc(CNc2nc3cc(C(F)(F)F)ccc3nc2C(=O)O)cc1 | 95.9 | 78.6 | 71.3 |  | 50.6 | > 100 | 62.6 | > 100 | 76.3 | > 100
CCCCCCCCCCCCc1ccsc1-c1ccc(-c2ccc(-c3sccc3CCCCCCCCCCCC)s2)s1 | > 100 | > 100 | > 100 | > 100 | > 100 |  | > 100 | > 100 | > 100 | > 100
C#CCn1c(=O)ccn(/C(=C/C(=O)OCC)C(=O)OCC)c1=O | 34.9 | 20.3 |  | 43.5 | 28.1 | 17.8 | 29.5 | 14.1 | 25.1 | > 100
CN(C)NC1=NS(=O)(=O)c2cc3c(=O)n(C)[nH]c3cc2S1 | > 10 | > 10 | > 10 | > 10 |  | > 10 | > 10 | > 10 | > 10 | > 10
O=C1c2ccccc2C(=O)N1NC1=NCCN1 | > 100 | > 100 | > 100 |  | > 100 | > 100 | > 100 | > 100 | > 100 | > 100
CCCC(C(=O)OC)C1N=C(NC#N)N(Cc2ccccc2)C1=O (stereo not drawn) | > 100 | > 100 | > 100 |  |  | > 100 | > 100 |  | > 100 | > 100

From PubChem BioAssay (NCI)
